Each block holds one molecule with its values, some of them ahead of it.
What was measured:
human LPA1 = biological target: T1, human LPA1 (Homo sapiens, UniProt Q92633); assay: LPA1 functional antagonist assay (LPA-induced calcium flux); format: cell-based; details: CHO cells overexpressing human LPA1; inhibition of calcium flux induced by 10 nM LPA; read-out: hLPA1 IC50
T1 construct: expressed in transfected cells; host or cells: Chinese hamster ovary (CHO) cells
Outline: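 CHO cells overexpressing human LPA1, loaded with calcium dye, given compound (0.08 nM–5 μM final, 0.5% DMSO) for 20 min at room temperature in HBSS/HEPES with 0.1% fatty-acid-free BSA, then stimulated with 10 nM LPA. IC50 defined as 50% inhibition of LPA-induced calcium flux, from 4-parameter logistic fit.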

nerve-injured mice = details: pretreatment; cited from earlier work
UUO mice = details: compared with LPA1 (-/-) mice; cited from earlier work
[1] = tested on: pancreatic cancer cell lines; details: cited from earlier work
[2] = tested on: highly peritoneal metastatic pancreatic cancer cell line; details: cited from earlier work
[3] = tested on: mouse epithelial renal cell line, MCT; details: co-treatment with LPA, MCT cells; cited from earlier work
[4] = tested on: human foetal lung fibroblasts; details: cited from earlier work

T1 sequence (Q92633 whole entry): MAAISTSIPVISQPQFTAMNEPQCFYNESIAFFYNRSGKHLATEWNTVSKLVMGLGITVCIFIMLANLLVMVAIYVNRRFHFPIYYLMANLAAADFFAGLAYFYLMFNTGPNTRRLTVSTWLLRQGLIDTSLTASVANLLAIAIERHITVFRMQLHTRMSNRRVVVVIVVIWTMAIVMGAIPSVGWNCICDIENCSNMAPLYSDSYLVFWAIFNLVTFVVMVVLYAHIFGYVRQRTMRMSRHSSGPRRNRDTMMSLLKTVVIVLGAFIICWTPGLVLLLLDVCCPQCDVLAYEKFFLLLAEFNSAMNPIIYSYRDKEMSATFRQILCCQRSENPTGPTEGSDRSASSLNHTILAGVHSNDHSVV

Structure (SMILES): Cc1noc(-c2ccc(OC3CCC(C(=O)O)C3)cn2)c1CNc1nccc(-c2ccccc2)n1 (stereo not shown) [Example 42, 3-((6-(3-methyl-4-(((4-phenylpyrimidin-2-yl)amino)methyl)isoxazol-5-yl)pyridin-3-yl)oxy)cyclopentane-1-carboxylic Acid]
IC50 (human LPA1): 26 nM

Structure (SMILES): C[C@@H](N)[C@H]1CC[C@H](C(=O)Nc2ccncc2)CC1 [Example Y-27632]
allodynia and hyperalgesia (nerve-injured mice): completely abolished

Structure (SMILES): Cc1noc(-c2ccc(CSCCC(=O)O)cc2)c1NC(=O)OC(C)c1ccccc1Cl (stereo not shown) [Ki16425]
development of renal fibrosis in UUO mice (UUO mice): closely resembled the profile of LPA1 (−/−) mice
in vitro migration in response to LPA and peritoneal fluid (ascites) from pancreatic cancer patients [1]: effectively blocked
LPA-induced and ascites-induced invasion activity [2]: blocked
LPA-induced increase in expression of the profibrotic cytokine CTGF [3]: almost completely suppressed
chemotaxis of human foetal lung fibroblasts induced by BAL obtained from IPF patients [4]: blocked

The remaining lines, values ahead:

IC50 (human LPA1): 13 nM
Structure (SMILES): Cc1nc(-c2nnn(C)c2COC(=O)N(C)CC2CCC2)ccc1O[C@H]1CC[C@H](CC(=O)O)C1 (single isomer, unassigned) [Example 49, (±)-trans-2-[3-({6-[5-({[(cyclobutyl-methyl)(methyl)carbamoyl]oxy}methyl)-1-methyl-1H-1,2,3-triazol-4-yl]-2-methylpyridin-3-yl}oxy)cyclopentyl]acetic acid]

IC50 (human LPA1): 28 nM
Structure (SMILES): Cc1nc(-c2nnn(C)c2COC(=O)N(C)CC2CCC2)ccc1O[C@H]1CC[C@H](C(=O)O)C1 (single isomer, unassigned) [Example 78, Trans-(1,3)-3-({6-[5-({[(cyclobutyl-methyl)(methyl)carbamoyl]oxy}methyl)-1-methyl-1H-1,2,3-triazol-4-yl]-2-methylpyridin-3-yl}oxy)cyclopentane-1-carboxylic acid]

IC50 (human LPA1): 670 nM
Structure (SMILES): Cc1nc(-c2nnn(C)c2COC(=O)N(C)CC2CCC2)ccc1O[C@H]1CC[C@H](C(=O)O)C1 (single isomer, unassigned) [Example 79, Trans-(1,3)-3-({6-[5-({[(cyclobutyl-methyl) (methyl)carbamoyl]oxy}methyl)-1-methyl-1H-1,2,3-triazol-4-yl]-2-methylpyridin-3-yl}oxy)cyclo-pentane-1-carboxylic acid]
